Results from US20170189294A1, “Non-Irritating, Non-Whitening Photoprotective Compositions” (Eveready Battery Company, Inc., priority 2013, published 2017).

What was measured:
[1] = solubility/compatibility and stability observations in the compositions; format: physicochemical; conditions: three (3) months at 40° C.
Text: With regard to the photoprotective compositions of the present disclosure, it was observed that high levels of isohexadecane, especially those of about 70 wt. %, limited the solubility and/or compatibility of other ingredients which cause undesirable characteristics within the entire photoprotective composition such as, i.e., hazing, oily segregation, and/or precipitation from the composition, and combinations thereof. […] Dimethicone with a viscosity of about 350 cst at a 1 wt. % concentration, for example, causes hazing.

flame extension test = format: physicochemical; conditions: propellant
Experimental: In one embodiment, the photoprotective composition concentrate and propellant are added to an aerosol container in a ratio of about 70:30 to about 60:40. The tetraflouroethane and difluoroethane propellants were tested and are non-flammable in view of the flame extension test.
In another embodiment, the photoprotective composition concentrate and propellant are added to an aerosol container in a ratio of about 70:30. The tetraflouroethane and isobutene propellants were evaluated to determine what blends of tetraflouroethane and isobutene propellants would provide a non-flammable product at a reasonable cost. […] In some embodiments having a photoprotective composition comprising a concentrate and at least one propellant, the ratio of the photoprotective composition and the propellant can be between about 2.5:1 and about 1.25:1.

Row | SMILES | storage stability [1] | flammability (flame extension test)
1 | COc1ccc(C(=O)CC(=O)c2ccc(C(C)(C)C)cc2)cc1 [avobenzone] | crystals appeared | –
2 | FCC(F)(F)F [tetraflouroethane] | – | non-flammable
3 | CC(F)F [difluoroethane, 1,1-difluoroethane] | – | non-flammable
